Laboratory results from ChEMBL document CHEMBL4411333, “Optimization of Fused Bicyclic Allosteric SHP2 Inhibitors” (J Med Chem, 2019).
Active and inactive are the calls of the source. No cut-off for these calls is given here.

Assays:
KYSE-520 cell line = experiment: Antiproliferative activity against human KYSE520 cells after 5 days by Celltiter-Glo reagent-based assay; conditions: KYSE-520, 5 days
[1] = molecular target: T1, Tyrosine-protein phosphatase non-receptor type 11 (Homo sapiens) (UniProt Q06124); experiment: Inhibition of SHP2 (unknown origin) at 40 uM
T1 sequence (whole entry): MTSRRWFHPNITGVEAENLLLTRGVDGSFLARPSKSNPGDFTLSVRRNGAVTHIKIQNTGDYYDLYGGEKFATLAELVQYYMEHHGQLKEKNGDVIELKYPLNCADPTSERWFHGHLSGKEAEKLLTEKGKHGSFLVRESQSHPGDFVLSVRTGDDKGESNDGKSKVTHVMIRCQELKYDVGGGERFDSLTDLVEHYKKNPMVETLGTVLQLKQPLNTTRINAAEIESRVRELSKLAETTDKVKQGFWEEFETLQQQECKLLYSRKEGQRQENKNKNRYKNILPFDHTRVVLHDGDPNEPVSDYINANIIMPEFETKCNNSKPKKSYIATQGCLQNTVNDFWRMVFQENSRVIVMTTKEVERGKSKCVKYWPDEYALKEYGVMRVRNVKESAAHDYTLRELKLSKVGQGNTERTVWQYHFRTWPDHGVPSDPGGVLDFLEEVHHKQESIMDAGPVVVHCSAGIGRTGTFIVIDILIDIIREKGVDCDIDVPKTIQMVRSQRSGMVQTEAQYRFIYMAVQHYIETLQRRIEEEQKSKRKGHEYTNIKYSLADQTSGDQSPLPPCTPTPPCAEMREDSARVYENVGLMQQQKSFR

[2] = molecular target: T1, Tyrosine-protein phosphatase non-receptor type 11 (Homo sapiens); experiment: Stabilization of SHP2 (unknown origin) assessed as thermal denaturation by measuring change in melting temperature at 100 uM by differential scanning fluorimetry
[3] = Oral bioavailability in Sprague-Dawley rat at 5 mg/kg; assay type: ADME, organism-based; conditions: in vivo
[4] = Terminal half life in Sprague-Dawley rat at 1 mg/kg, iv or 5 mg/kg, po; assay type: ADME, organism-based; conditions: in vivo, read-out: beta t1/2 (converted)
Mus musculus [5] = species on record: Mus musculus; conditions: 100 mg/kg
Mus musculus [6] = species on record: Mus musculus; conditions: 100 mg/kg; remark: listed apart in the source
[7] = Volume of distribution in Sprague-Dawley rat at 1 mg/kg, iv or 5 mg/kg, po; assay type: ADME, organism-based; conditions: in vivo
[8] = molecular target: T2, Tyrosine-protein phosphatase non-receptor type 11 (Homo sapiens, UniProt Q06124); experiment: Inhibition of SHP2 in human KYSE520 cells assessed as suppression of ERK phosphorylation after 2 hrs by AlphaScreen SureFire Phospho-ERK1/2 assay; assay type: cell-based
T2 sequence (Q06124 whole entry): T1 sequence (whole entry)

[9] = molecular target: Voltage-gated inwardly rectifying potassium channel KCNH2 (Homo sapiens, UniProt Q12809)
Voltage-gated inwardly rectifying potassium channel KCNH2, sequence (Q12809 whole entry, the tested form may be a part): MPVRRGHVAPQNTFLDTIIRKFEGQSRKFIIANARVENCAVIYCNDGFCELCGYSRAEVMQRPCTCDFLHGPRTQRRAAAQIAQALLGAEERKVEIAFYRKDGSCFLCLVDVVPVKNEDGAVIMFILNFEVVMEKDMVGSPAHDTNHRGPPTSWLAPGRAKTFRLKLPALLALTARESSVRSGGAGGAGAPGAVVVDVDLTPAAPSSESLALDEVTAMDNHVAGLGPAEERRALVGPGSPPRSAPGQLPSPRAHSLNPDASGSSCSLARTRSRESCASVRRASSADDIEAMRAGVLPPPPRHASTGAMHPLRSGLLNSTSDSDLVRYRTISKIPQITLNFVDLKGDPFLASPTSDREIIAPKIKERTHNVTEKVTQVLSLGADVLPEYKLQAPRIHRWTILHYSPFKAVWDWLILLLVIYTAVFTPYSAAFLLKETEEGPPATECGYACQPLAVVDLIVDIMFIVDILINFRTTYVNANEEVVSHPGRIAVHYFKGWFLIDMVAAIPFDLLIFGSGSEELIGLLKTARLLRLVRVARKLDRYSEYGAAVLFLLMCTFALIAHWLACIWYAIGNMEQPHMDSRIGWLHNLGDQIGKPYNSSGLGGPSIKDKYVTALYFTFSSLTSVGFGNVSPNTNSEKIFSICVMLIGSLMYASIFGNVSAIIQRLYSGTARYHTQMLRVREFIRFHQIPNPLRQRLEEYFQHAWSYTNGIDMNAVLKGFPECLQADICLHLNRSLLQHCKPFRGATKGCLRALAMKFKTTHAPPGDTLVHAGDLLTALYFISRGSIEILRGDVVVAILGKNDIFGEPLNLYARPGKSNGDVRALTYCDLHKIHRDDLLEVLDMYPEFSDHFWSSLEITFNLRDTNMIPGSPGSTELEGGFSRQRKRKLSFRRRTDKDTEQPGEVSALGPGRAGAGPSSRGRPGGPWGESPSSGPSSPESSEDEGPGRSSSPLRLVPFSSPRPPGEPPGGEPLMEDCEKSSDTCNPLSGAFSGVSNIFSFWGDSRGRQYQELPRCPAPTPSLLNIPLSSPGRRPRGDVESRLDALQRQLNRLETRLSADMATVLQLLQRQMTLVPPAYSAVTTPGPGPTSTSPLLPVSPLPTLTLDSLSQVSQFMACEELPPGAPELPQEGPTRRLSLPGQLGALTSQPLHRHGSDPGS

[10] = molecular target: T2, Tyrosine-protein phosphatase non-receptor type 11; experiment: Inhibition of human 6His-tagged SHP2 (2 to 593 residues) expressed in Escherichia coli BL21 Star (DE3) using DiFMUP as substrate preincubated for 30 mins followed by substrate addition by fluorescence assay
[11] = Half life in rat liver microsomes; assay type: ADME, Microsome
[12] = Clearance in Sprague-Dawley rat at 1 mg/kg, iv or 5 mg/kg, po relative to hepatic extraction; assay type: ADME, organism-based; conditions: in vivo
[13] = Clearance in rat liver microsomes; assay type: ADME, Microsome; conditions: read-out: CLH

Compound | IC50 (KYSE-520 cell line) [nM] | IC50 [8] [nM] | IC50 [9] [nM] | further results
C[C@@H]1OCC2(CCN(c3cnc4c(-c5cccc(Cl)c5Cl)n[nH]c4n3)CC2)[C@@H]1N | 460 | – | – | –
Cc1ccc(-c2cc(C(=O)O)c3c(-c4ccc(Br)cc4)n[nH]c3n2)cc1 | – | – | – | inhibition [1]: 30%; ΔTm [2]: 0.62 °C
C[C@@H]1OCC2(CCN(c3nc4[nH]nc(-c5cccc(Cl)c5Cl)c4c(=O)n3C)CC2)[C@@H]1N | 167 | – | – | bioavailability [3]: 51%; half-life [4]: 4.6 h; inhibition (Mus musculus [5]): Active; inhibition (Mus musculus [6]): Active; Vd [7]: 10.5 L/kg
Cc1nc(N)ccc1-c1n[nH]c2nc(N3CCC4(CC3)CO[C@@H](C)[C@H]4N)n(C)c(=O)c12 | 660 | 38 | 6600 | –
Cn1c(N2CCC3(CCC[C@H]3N)CC2)nc2n[nH]c(-c3cccc(Cl)c3Cl)c2c1=O | 465 | 30 | 250 | IC50 [10]: 31 nM
Cn1c(N2CCC(C)(CN)CC2)nc2[nH]nc(-c3cccc(Cl)c3Cl)c2c1=O | 13500 | – | – | –
C[C@@H]1OCC2(CCN(c3nc4[nH]nc(-c5ccncc5)c4c(=O)n3C)CC2)[C@@H]1N | 1260 | 129 | > 30000 | –
C[C@@H]1OCC2(CCN(c3nc4[nH]nc(-c5ccnc(NC6CCC6)c5Cl)c4c(=O)n3C)CC2)[C@@H]1N | 380 | 260 | 1900 | IC50 [10]: 350 nM
CN(C)Cc1ccc(-c2cc3onc(-c4ccccc4Cl)c3c(=O)n2C)cc1 | – | – | – | inhibition [1]: 31%; ΔTm [2]: 0.67 °C
C[C@@H]1OCC2(CCN(c3nc4[nH]nc(-c5ccnc(N)c5Cl)c4c(=O)n3C)CC2)[C@@H]1N | 1200 | 103 | > 30000 | IC50 [10]: 32 nM
Cn1c(N2CCC3(CC2)COC[C@H]3N)nc2[nH]nc(-c3cccc(Cl)c3Cl)c2c1=O | 1730 | 123 | – | –
C[C@@H]1OCC2(CCN(c3nc4[nH]nc(-c5ccnc(Cl)c5Cl)c4c(=O)n3C)CC2)[C@@H]1N | 2600 | – | – | –
C[C@@H]1OCC2(CCN(c3nc4[nH]nc(-c5ccnc(NC6CC6)c5Cl)c4c(=O)n3C)CC2)[C@@H]1N | 360 | – | – | half-life [11]: 0.887 h; bioavailability [3]: 2%; half-life [4]: 2.7 h; Vd [7]: 3.9 L/kg; CL [12]: 83%; microsomal CLint [13]: 26.1 µL/min/mg
C[C@@H]1OCC2(CCN(c3nc4[nH]nc(Sc5ccnc(N)c5Cl)c4c(=O)n3C)CC2)[C@@H]1N | 720 | 96 | > 30000 | –
C[C@@H]1OCC2(CCN(c3cnc4c(-c5cccc(Cl)c5Cl)c[nH]c4n3)CC2)[C@@H]1N | – | 484 | 7 | –
CNc1nccc(-c2n[nH]c3nc(N4CCC5(CC4)CO[C@@H](C)[C@H]5N)n(C)c(=O)c23)c1Cl | 370 | 22 | > 30000 | IC50 [10]: 55 nM
